The text below walks through data of PMC4812366, “3,1-Benzothiazines, 1,4-Benzodioxines and 1,4-Benzoxazines as Inhibitors of Matriptase-2: Outcome of a Focused Screening Approach” (Pharmaceuticals, 2016).

In assay [1] the target is T1, human matriptase-2 (Homo sapiens, UniProt Q8IU80).
T1 construct: The conditioned medium of HEK-MT2 cells was used as a source of matriptase-2 activity; expressed in transfected cells; host or cells: HEK-MT2 cells (conditioned medium, collected and concentrated)
T1 sequence (Q8IU80 577-811 limits assumed): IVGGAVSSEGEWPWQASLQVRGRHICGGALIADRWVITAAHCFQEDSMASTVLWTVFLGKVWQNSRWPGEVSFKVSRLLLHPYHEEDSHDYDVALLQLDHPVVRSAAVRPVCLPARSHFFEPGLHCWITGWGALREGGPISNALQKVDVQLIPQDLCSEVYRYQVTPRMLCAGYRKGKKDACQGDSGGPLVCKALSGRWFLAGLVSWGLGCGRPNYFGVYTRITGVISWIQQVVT
T1 sequence (Q8IU80 438-576 partner limits assumed): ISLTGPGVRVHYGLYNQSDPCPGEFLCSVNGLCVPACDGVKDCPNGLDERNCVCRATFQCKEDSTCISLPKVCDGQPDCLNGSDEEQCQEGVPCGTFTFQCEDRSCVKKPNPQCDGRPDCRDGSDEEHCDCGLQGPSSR
Description: Human matriptase-2 inhibition, fluorogenic substrate Boc-Gln-Ala-Arg-AMC, conditioned medium of HEK-MT2 cells. In kind it is biochemical. The conditions noted are these: for IC50: substrate 40 µM, pH 8.0, 37 °C; for matriptase-2 inhibitory activity in words: screening at single inhibitor concentration of 40 µM. On the procedure:
The conditioned medium of HEK-MT2 cells was used as a source of matriptase-2 activity and assay conditions were as follows. Assay buffer was 50 mM Tris–HCl, 150 mM NaCl, pH 8.0. The conditioned medium was collected and concentrated, and aliquots of the supernatant were stored at −20 °C. After thawing, it was diluted with assay buffer (1:10 or 1:20 depending on the enzyme activity) and kept at 0 °C not longer than 8 h. The assays were performed at a FLUOstar OPTIMA PlateReader (BMG Labtech, Ortenberg, Germany). A 10 mM stock solution of the fluorogenic substrate Boc-Gln-Ala-Arg-AMC (Bachem, Bubendorf, Switzerland) in DMSO was diluted with assay buffer. The final concentration of the substrate was 40 µM and of DMSO was 6%. The substrate concentration of 40 µM refers to 1.24 × Km. Into each well containing 163.8 µL buffer, 11.2 µL of an inhibitor solution in DMSO and 10 µL of a substrate solution (800 µM) were added and thoroughly mixed. At 37 °C the reaction was initiated by adding 15 µL of diluted conditioned medium and followed over 400 s. All measurements were performed in duplicate with a single inhibitor concentration of 40 µM. Active inhibitors were investigated in duplicate with five different concentrations. Benzamidine hydrochloride was purchased from Acros Organics (Geel, Belgium).
Progress curves were analyzed by linear regression. IC50 values were determined by nonlinear regression using the equation vs = v0/(1 + [I]/IC50), where vs is the steady-state rate, v0 is the rate in the absence of the inhibitor, and [I] is the inhibitor concentration. Standard errors of the mean (SEM) values refer to this nonlinear regression.

The target of assay [2] is T1, human matriptase-2. The description is as above. Format: biochemical. The conditions noted are these: substrate concentrations of 20, 30, 40, 50 and 60 µM.
In another assay the test system is thrombin. The conditions noted are these: cited from earlier work; for thrombin inhibition relative to trypsin and factor Xa, in words: ref [39],[41].
Where [3] appears, read: Table 2, 2,3-dihydro-1,4-benzodioxines and 3,4-dihydro-2H-1,4-benzoxazines, values with SEM: duplicate, five inhibitor concentrations, limits: duplicate, single inhibitor concentration of 40 µM, read-out: IC50 (µM) ± SEM.
Setting [4] is: Table 1, 4H-3,1-benzothiazin-4-ones, values with SEM: duplicate, five inhibitor concentrations, limits: duplicate, single inhibitor concentration of 40 µM, read-out: IC50 (µM) ± SEM.
Setting [5] is: read-out: IC50 value for matriptase-2 inhibition.

Each structure is given as a SMILES string. Read-outs that look alike come from different tables or passages of the source.

Regarding `COc1ccc2cc(S(=O)(=O)NN(Cc3cccc(C(=N)N)c3)C(=O)N(C)C3CCCC3)ccc2c1` [Compound 25], the IC50 on human matriptase-2 [1] (setting [3]) is more than 40 µM. Besides, at human matriptase-2 [1], the “matriptase-2 inhibitory activity in words” value is “inactive”.
Take `CN1CC(C)(COc2ccc(C(=N)N)cc2)Oc2cc(NC(=O)CCC(=O)O)ccc21` (stereo not shown) [Compound 19]: on human matriptase-2 [1] (setting [3]), the IC50 turned out to be 38.8 ± 3.14 µM. Also, the “matriptase-2 inhibitory activity in words” value on human matriptase-2 [1] is recorded as “moderately active”. Further, on human matriptase-2 [2], the “type of inhibition (Lineweaver-Burk plot)” value is on record as “mixed type of inhibition”.
For `O=C(Nc1nc2cc(C(=O)N3CCN(Cc4ccccc4)CC3)ccc2c(=O)s1)c1ccccc1` [Compound 6], at human matriptase-2 [1] (setting [4]), the concentration for half-maximal inhibition (IC50) was more than 160 µM.
As to `CCOC(=O)C1CCN(c2ccc(N3C[C@@H](CNCc4ccc(C(=N)N)cc4)OC3=O)cc2)CC1` [(R)-24], at human matriptase-2 [1] (setting [3]), the IC50 was more than 40 µM. Moreover, the “matriptase-2 inhibitory activity in words” value at human matriptase-2 [1] is “inactive”.
With `CN1CC(C)(COc2ccc(C(=N)N)cc2)Oc2ccc(N(Cc3cc(F)cc(F)c3)C(=O)C(=O)O)cc21` (stereo not shown) [Compound 14], the IC50 at human matriptase-2 [1] (setting [3]) was found to be 35.8 ± 1.1 µM.
With `CN1CC(C)(COc2ccc(C(=N)N)cc2)Oc2cc(N(Cc3ccc(F)cc3)C(=O)C(=O)O)ccc21` (stereo not shown) [Compound 13], in the assay with thrombin, the “thrombin inhibition relative to trypsin and factor Xa, in words” value was “inhibited thrombin better than trypsin and factor Xa”. For the same compound, the “thrombin inhibition in words” value in the assay on thrombin (ref [39]) was “highly active”. In addition, on human matriptase-2 [1] (setting [3]), the IC50 is more than 40 µM. At human matriptase-2 [1], the “matriptase-2 inhibitory activity in words” value is “inactive”.
As for `N=C(N)c1ccc(OC[C@@H]2COc3cc(N(Cc4ccccc4)C(=O)C(=O)O)ccc3O2)cc1` [(R)-11], the IC50 at human matriptase-2 [1] (setting [3]) worked out at 33.6 ± 1.1 µM.
`CN1CC(C)(COc2ccc(C(=N)N)cc2)Oc2cc(N(CC(=O)O)Cc3cc(F)cc(F)c3)ccc21` (stereo not shown) [Compound 15]: in the assay with thrombin, the “thrombin inhibition relative to trypsin and factor Xa, in words” value is “inhibited thrombin better than trypsin and factor Xa”. Further, the IC50 on human matriptase-2 [1] (setting [3]) amounted to 25.8 ± 4 µM.
For the compound `N=C(N)c1ccc(OC[C@@H]2COc3ccc(N(Cc4ccccc4)C(=O)C(=O)O)cc3O2)cc1` [(R)-10], the IC50 at human matriptase-2 [1] (setting [3]) was 27.3 ± 2 µM.
Turning to `CN(C)CCNC(=O)c1ccc2c(=O)sc(NC(=O)c3ccccc3)nc2c1` [Compound 2], at human matriptase-2 [1] (setting [4]), the IC50 is more than 160 µM. The “matriptase-2 inhibitory activity in words” value on human matriptase-2 [1] is “loss of activity”.
Take `N=C(N)c1ccc(CN2C(=O)COc3cc(NC(=O)[C@H](N)Cc4ccccc4)ccc32)cc1` [Compound 22]: the IC50 on human matriptase-2 [1] (setting [3]) amounted to 30.9 ± 3.4 µM.
For `CN1C(=O)C(OCc2ccc(C(=N)N)cc2)Oc2cc(C(=O)Nc3ccccc3)ccc21` (stereo not shown) [Compound 21], on human matriptase-2 [1] (setting [3]), the IC50 amounted to 42.6 ± 4.7 µM.
For `CCOC(=O)[C@H](CNC(=O)CN1C(=O)COc2cc(NC(=O)c3ccc(C(=N)N)cc3)ccc21)NS(=O)(=O)c1ccc(C)cc1` [Compound 23], the IC50 at human matriptase-2 [1] (setting [3]) was 20.5 ± 2 µM.
Consider `CN(C)CCNC(=O)c1ccc2nc(NC(=O)c3ccccc3)sc(=O)c2c1` [Compound 1], for which, at human matriptase-2 [1] (setting [4]), the IC50 was 148 ± 28 µM.
Consider `N=C(N)c1ccccc1` [Benzamidine, reference compound], for which, on human matriptase-2 [1], the “matriptase-2 inhibitory activity in words” value is reported as “lack of inhibitory activity”. For the same compound, the IC50 at human matriptase-2 [1] (setting [5]) was more than 400 µM.
In the case of `CN1CCN(C(=O)c2ccc3nc(NC(=O)c4ccccc4)sc(=O)c3c2)CC1` [Compound 3], on human matriptase-2 [1] (setting [4]), the IC50 is more than 160 µM.
Take `CN1CCN(C(=O)c2ccc(C(=O)Nc3nc4ccccc4c(=O)s3)cc2)CC1` [Compound 8]: the IC50 on human matriptase-2 [1] (setting [4]) is more than 160 µM. For the same compound, the “matriptase-2 inhibitory activity in words” value on human matriptase-2 [1] was “inactive”.
Regarding `N=C(N)c1ccc(OC[C@H]2COc3cc(N(Cc4ccccc4)C(=O)C(=O)O)ccc3O2)cc1` [(S)-11], at human matriptase-2 [1] (setting [3]), the IC50 amounted to 29.8 ± 1.6 µM.
For `CCOC(=O)C(=O)N(Cc1ccccc1)c1ccc2c(c1)O[C@@H](COc1ccc(C(=N)N)cc1)CO2` [(S)-12, (S)-Ethyl 2-(benzyl(3-((4-carbamidoylphenoxy)methyl)-2,3-dihydrobenzo[b][1,4]dioxin-6-yl)amino)-2-oxoacetate], the “thrombin inhibition in words” value in the assay with thrombin (ref [38]) is on record as “highly potent”. In addition, the IC50 at human matriptase-2 [1] (setting [3]) was 8.47 ± 0.76 µM; on human matriptase-2 [1] (setting [5]), less than 10 µM.
In the case of `CCOC(=O)CN(Cc1ccc(F)cc1)c1ccc2c(c1)OC(C)(COc1ccc(C(=N)N)cc1)CN2C` (stereo not shown) [Compound 18], the IC50 at human matriptase-2 [1] (setting [3]) turned out to be 31.6 ± 2.69 µM.
In the case of `CN1CCN(C(=O)c2ccc3c(=O)sc(NC(=O)c4ccccc4)nc3c2)CC1` [Compound 4], the half-maximal inhibitory concentration (IC50) on human matriptase-2 [1] (setting [4]) is more than 160 µM.
Consider `N=C(N)c1ccc(OC[C@H]2COc3ccc(N(Cc4ccccc4)C(=O)C(=O)O)cc3O2)cc1` [(S)-10], for which the IC50 at human matriptase-2 [1] (setting [3]) is 16.7 ± 1.7 µM.
With `O=C(Nc1nc2ccc(C(=O)N3CCN(Cc4ccccc4)CC3)cc2c(=O)s1)c1ccccc1` [Compound 5], on human matriptase-2 [1] (setting [4]), the IC50 is more than 160 µM. Further, the “matriptase-2 inhibitory activity in words” value on human matriptase-2 [1] was “inactive”.
Regarding `CN1CC(C)(COc2ccc(C(=N)N)cc2)Oc2cc(N(CC(=O)O)Cc3ccc(F)cc3)ccc21` (stereo not shown) [Compound 16], in the assay with thrombin, the “thrombin inhibition relative to trypsin and factor Xa, in words” value was “inhibited thrombin better than trypsin and factor Xa”. Further, on human matriptase-2 [1] (setting [3]), the IC50 worked out at 13.6 ± 2.31 µM.
As to `CN1CC(C)(COc2ccc(C(=N)N)cc2)Oc2ccc(N(CC(=O)O)Cc3ccc(F)cc3)cc21` (stereo not shown) [Compound 17], the IC50 on human matriptase-2 [1] (setting [3]) worked out at 11.2 ± 1.61 µM.
In the case of `COC(=O)C(Cc1ccccc1)C(=O)Nc1ccc2c(c1)OC(C)(COc1ccc(C(=N)N)cc1)CN2C` (stereo not shown) [Compound 20], the half-inhibitory concentration (IC50) on human matriptase-2 [1] (setting [3]) came out at 31.4 ± 3.6 µM. For the same compound, on human matriptase-2 [1], the “matriptase-2 inhibitory activity in words” value is given as “moderately active”.
On to `NCc1ccc(C(=O)Nc2nc3ccccc3c(=O)s2)cc1` [Compound 7], for which the IC50 on human matriptase-2 [1] (setting [4]) was 119 ± 9 µM. Further, at human matriptase-2 [1], the “matriptase-2 inhibitory activity in words” value was “active”.
For `O=C(Nc1nc2ccccc2c(=O)s1)c1ccc(C(=O)N2CCN(Cc3ccccc3)CC2)cc1` [Compound 9], the IC50 at human matriptase-2 [1] (setting [4]) was more than 160 µM. In addition, the “matriptase-2 inhibitory activity in words” value at human matriptase-2 [1] is “inactive”.

By IC50 is commonly meant the concentration that gives 50% inhibition.
